# Measured values as given in patent publication US20180369087A1, “Hydrogen Peroxide Booster System for Enhanced Teeth Whitening” (Colgate-Palmolive Company, priority 2015, published 2018).
# Assay: SNOBS stability in anhydrous formulation, HPLC
# Assay type: physicochemical
# Conditions: for % SNOBS: composition of Table 5
# Protocol: The composition of Table 5 was aged at 40° C. and at room temperature for 8 weeks and 13 weeks respectively. The percentage of SNOBS remaining was quantified by HPLC. The results in Table 6 indicate that there is sufficient SNOBS remaining in the composition after aging at both room temperature and at 40° C. to be efficacious as a booster for the peroxide component in a tooth whitening composition.
smiles,measurement,setting,value
"CCCCCCCCC(=O)Oc1ccc(S(=O)(=O)[O-])cc1.[Na+] [SNOBS, sodium nonanoyloxybenzenesulfonate]",% Loss of SNOBS,4 weeks/40° C.,3.1%
same,% SNOBS,4 weeks/40° C.,9.36%
same,% Loss of SNOBS,8 weeks/40° C.,6.4%
same,% SNOBS,8 weeks/40° C.,8.99%
same,% Loss of SNOBS,13 weeks/Room Temperature (RT),4.06%
same,% SNOBS,13 weeks/Room Temperature (RT),9.21%
same,% SNOBS,Initial,9.6%
